According to PMC6804997 (PLoS ONE, 2019):

Legend:
[1] = test system: rhabdomyolysis-induced AKI in glycerol-injected mice; experiment: Glycerol-induced rhabdomyolysis AKI mouse model with F7 pretreatment; format: in vivo, C57BL/6 mice
Procedure: After one week of adoption to the housing conditions, the mice were randomly divided into three groups (n = 8): control, glycerol, and glycerol+HDAC6 inhibitor (F7). For the latter two groups, a single intramuscular injection of 50% glycerol dissolved in 0.9% normal saline (10 μl/g) was divided between bilateral back limbs to induce rhabdomyolysis-induced AKI model. The mice in control group received the same dose of saline injection at the place of glycerol. Before glycerol injection, mice in pretreatment group were orally administrated with F7 (dissolved in DEG and diluted with 0.9% saline) at a dose of 40mg/kg/d (200 μl solution for 28g) for 3 days. For control and glycerol groups, mice were treated with the same dose of saline.
All the mice were euthanized via pentobarbital sodium injection (50 mg/kg, i.p.). Terminal blood samples were collected and serum samples were stored at -80°C. Kidney tissues were divided and respectively removed into 10% phosphate buffered formalin for histological staining, and into liquid nitrogen follows by storage at -80°C for further quantitative analysis and immunofluorescence staining.
The serum level of creatinine kinase (CK), blood urea (UREA) and serum creatinine (sCr) were tested using high performance liquid chromatography (HPLC) by Institute of Drug Clinical Trial and the GCP center of West China Hospital of Sichuan University.
Paraffin-embedded kidney tissue samples were cut into 4-um sections and stained with haematoxylin and erosin (H&E) and periodic acid-Schiff (PAS) staining. These sections were viewed using light microscopy at magnifications of ⊆200 and ⊆400 respectively, and semiquantitative estimation of renal tubular damage was performed on a scale from 0 to 4 to grade the percentage of injured/damaged renal tubules: 0 for 0%, 0.5% for <10%, 1 for 10–25%, 2 for 26–50%, 3 for 51–75% and 4 for 76–100%[22]. At least 10 areas were randomly selected in the cortex per slide.
Kidney tissue samples were mounted in O.C.T. compound medium (Tissue-Tek) for cryosectioning (4 μm). Sections were immediately fixed in 10% buffered formalin, washed, dehydrated and stored at -20°C. Before immunofluorescence staining, the tissue sections were rehydrated and blocked with 10% horse medium (diluted with PBS solution) for 1 hour at room temperature and incubated at 4°C overnight with indicated primary antibodies. Then sections were exposed to second antibodies labeled with Cy5 red or FITC green (Jackson ImmunoResearch Inc., West Grove, PA, United States). The nuclei were counterstained with DAPI (1:500, Life Technologies Corporation, OR, United States). The images were captured with AxioCam HRc digital camera (Carl Zeiss).
Kidney tissue or cultured cell samples were sufficiently lysed in the mixture of RIPA buffer (50 mM Tris (pH7.4), 150 mM NaCl, 1% TritonX-100, 1% sodium deoxycholate, 0.1% SDS) containing 4% cocktail proteinase inhibitor (Roche, Switzerland) on ice. After centrifuged at 13,000 rpm for 15 min at 4°C, supernate of the homogenate were collected for protein quantification. Protein equivalent to 50 ug were loaded into 10–12% SDS-PAGE gels for electrophoretic separation, and then transferred to polyvinylidene difluoride (PVDF) membranes (0.2 μm, Bio-Rad Laboratories, Inc.). After protein blotting, membranes were blocks using 5% non-fat dried milk for 1h at room temperature, then probed with primary antibodies at 4°C overnight, and incubated with secondary antibodies for 1h at room temperature. […]

HK-2 cells = experiment: Western blot of myoglobin-stimulated HK-2 cells; format: cell-based, Human
Procedure: Kidney tissue or cultured cell samples were sufficiently lysed in the mixture of RIPA buffer (50 mM Tris (pH7.4), 150 mM NaCl, 1% TritonX-100, 1% sodium deoxycholate, 0.1% SDS) containing 4% cocktail proteinase inhibitor (Roche, Switzerland) on ice. After centrifuged at 13,000 rpm for 15 min at 4°C, supernate of the homogenate were collected for protein quantification. Protein equivalent to 50 ug were loaded into 10–12% SDS-PAGE gels for electrophoretic separation, and then transferred to polyvinylidene difluoride (PVDF) membranes (0.2 μm, Bio-Rad Laboratories, Inc.). After protein blotting, membranes were blocks using 5% non-fat dried milk for 1h at room temperature, then probed with primary antibodies at 4°C overnight, and incubated with secondary antibodies for 1h at room temperature. […] Immunoblots were visualized with the Immobilon Western Chemiluminescent HRP Substrate (Millipore Corporation, Billerica, MA, United States) and measured with Bio-Rad Chemi Doc MP. […]

[2] = glycerol+F7 vs glycerol group, F7 40 mg/kg/d oral for 3 days
[3] = western blot, F7 40 mg/kg/d for 3 days

Q: With Cc1nc(N(C)c2ccc(Oc3ccc(C(=O)NO)cn3)cc2)c2ccccc2n1 [F7, N-hydroxy-6-(4-(methyl(2-methylquinazolin-4-yl)amino)phenoxy)nicotinamide] as the compound, how does the “IL-β and TNF-α in serum and kidney lysates” value ([1]; ELISA, F7 40 mg/kg/d for 3 days) read?
A: decreased

Q: And the “NGAL expression in tubules (immunofluorescence staining)” value ([1]; F7 40 mg/kg/d for 3 days)?
A: largely diminished

Q: And the “pathological injuries (tubular damage, H&E and PAS staining)” value ([1]; F7 40 mg/kg/d oral for 3 days pretreatment)?
A: effectively alleviated

Q: And the “Serum creatine kinase (CK)” value ([1]; glycerol+F7 group vs control, 24 hours after glycerol injection, F7 40 mg/kg/d oral for 3 days)?
A: markedly elevated

Q: What about the “serum creatinine (sCr)” value [1, 2] of the same compound?
A: remarkably decreased

Q: What about the “serum urea (UREA)” value [1, 2] of the same compound?
A: remarkably decreased

Q: And the “NGAL mRNA expression and protein expression” value ([1]; real-time PCR and immunoblot, F7 40 mg/kg/d for 3 days)?
A: markedly reduced

Q: What about the “mRNA level of IL-6 and TNF-α in kidney” value ([1]; real-time PCR, F7 40 mg/kg/d for 3 days) of the same compound?
A: significantly decreased

Q: What about the “expression of HDAC6 in the damaged kidney” value ([1]; western blot and immunofluorescence, F7 40 mg/kg/d for 3 days) of the same compound?
A: significantly inhibited

Q: What about the “IκBα phosphorylation in kidney” value [1, 3] of the same compound?
A: decreased

Q: And the “NF-κB p65 phosphorylation in kidney” value [1, 3]?
A: effectively down-regulated

Q: And the “acetylation of histone H3 and α-tubulin in kidney” value [1, 3]?
A: enhanced

Q: And the “p38 phosphorylation in kidney” value [1, 3]?
A: effectively inhibited

Q: And the “proinflammatory cytokines IL-6 and IL-β protein levels in kidney” value [1, 3]?
A: remarkably down-regulated

Q: What about the “total ERK1/2 expression in kidney” value [1, 3] of the same compound?
A: effectively inhibited

Q: What about the “ERK1/2 phosphorylation in kidney” value ([1]; western blot, F7 treatment group) of the same compound?
A: no significant ERK1/2 phosphorylation reduction

Q: What about the “HDAC6 expression in vitro” value (HK-2 cells) of the same compound?
A: effectively inhibited

Q: And the “inflammation in HK-2 cells (NF-κB pathway activation)” value (HK-2 cells)?
A: ameliorated
